Several values for one entry are separate records, joined by “and”; a condition that tells them apart may be missing. Equal entries are not always repeated. Inconclusive results and toxic doses are left out. The calls were made as follows: active = survival T/C of 150% or more; inactive = T/C below 125% in these data.
System: P388 leukemia ip, CD2F1 mice, survival T/C
Test: NCI In Vivo Anticancer Drug Screen. Data for tumor model P388 Leukemia (intraperitoneal) in CD2F1 (CDF1) mice
Conditions: endpoint: median survival time, higher = longer survival
Outline: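 Mice carrying the transplanted tumor received test compound or vehicle. Survival was recorded in each group, and the value is the treated-group measurement divided by that of the vehicle-treated control group.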

[1] = dose: 25.0 mg/kg/injection, schedule: Q01DX009 (ip), vehicle: saline with Tween-80
[2] = dose: 50.0 mg/kg/injection, schedule: Q01DX005 (ip), vehicle: saline with Tween-80
[3] = dose: 100.0 mg/kg/injection, schedule: Q01DX005 (ip), vehicle: saline with Tween-80
[4] = dose: 200.0 mg/kg/injection, schedule: Q01DX005 (ip), vehicle: saline with Tween-80

Measured: T/C

S=C1NCC(c2ccccc2)(c2ccccc2)N1
inactive: dose: 6.25 mg/kg/injection, schedule: Q04DX003 (ip), vehicle: Klucel (hydroxypropylcellulose) (HPC) 103 % of control | dose: 12.5 mg/kg/injection, schedule: Q04DX003 (ip), vehicle: Klucel (hydroxypropylcellulose) (HPC) 98 % of control

Brc1ccc2c(c1)-c1ccccc1C1=NCCN12
inactive: dose: 5.0 mg/kg/injection, schedule: Q01DX009 (ip), vehicle: saline 100 % of control | dose: 5.0 mg/kg/injection, schedule: Q04DX003 (ip), vehicle: saline 100 % of control | dose: 10.0 mg/kg/injection, schedule: Q01DX009 (ip), vehicle: saline 100 % of control | dose: 10.0 mg/kg/injection, schedule: Q04DX003 (ip), vehicle: saline 100 % of control | dose: 20.0 mg/kg/injection, schedule: Q01DX009 (ip), vehicle: saline 95 % of control | dose: 20.0 mg/kg/injection, schedule: Q04DX003 (ip), vehicle: saline 100 % of control and 104 % of control

Cn1nc(-c2ccccc2)c([N+](=O)[O-])c1NCc1ccccc1
inactive: dose: 50.0 mg/kg/injection, schedule: Q01DX005 (ip), vehicle: Klucel (hydroxypropylcellulose) (HPC) 97 % of control | dose: 100.0 mg/kg/injection, schedule: Q01DX005 (ip), vehicle: Klucel (hydroxypropylcellulose) (HPC) 100 % of control | dose: 200.0 mg/kg/injection, schedule: Q01DX005 (ip), vehicle: Klucel (hydroxypropylcellulose) (HPC) 97 % of control

CCCCc1nc2cc(CN3CCN(C(c4ccccc4)c4ccccc4)CC3)ccc2n1CC
inactive: dose: 6.25 mg/kg/injection, schedule: Q01DX009 (ip), vehicle: saline with Tween-80 95 % of control | dose: 12.5 mg/kg/injection, schedule: Q01DX009 (ip), vehicle: saline with Tween-80 101 % of control | [1] 100 % of control

CN1P(=N)(N)N=P(c2ccccc2)(c2ccccc2)N=P1(c1ccccc1)c1ccccc1 (stereo not drawn)
inactive: dose: 12.5 mg/kg/injection, schedule: Q01DX009 (ip), vehicle: Klucel (hydroxypropylcellulose) (HPC) 99 % of control and 113 % of control and 121 % of control | dose: 25.0 mg/kg/injection, schedule: Q01DX009 (ip), vehicle: Klucel (hydroxypropylcellulose) (HPC) 108 % of control and 115 % of control and 93 % of control | dose: 50.0 mg/kg/injection, schedule: Q01DX009 (ip), vehicle: Klucel (hydroxypropylcellulose) (HPC) 123 % of control and 88 % of control

CCOC(=O)c1ccc[nH]1
inactive: [1] 104 % of control | dose: 50.0 mg/kg/injection, schedule: Q01DX009 (ip), vehicle: saline with Tween-80 108 % of control | dose: 100.0 mg/kg/injection, schedule: Q01DX009 (ip), vehicle: saline with Tween-80 112 % of control | dose: 200.0 mg/kg/injection, schedule: Q01DX009 (ip), vehicle: saline with Tween-80 103 % of control

CCOC(=O)CN1CCC2CC1c1c([nH]c3ccccc13)C2c1cc2c(cc1OC)N(C)C1C(O)(C(=O)OC)C(OC(C)=O)C3(CC)C=CCN4CCC21C43 (stereo not drawn)
inactive: dose: 0.03 mg/kg/injection, schedule: Q04DX003 (ip), vehicle: saline with Tween-80 94 % of control | dose: 0.06 mg/kg/injection, schedule: Q01DX009 (ip), vehicle: Klucel (hydroxypropylcellulose) (HPC) 94 % of control | dose: 0.06 mg/kg/injection, schedule: Q04DX003 (ip), vehicle: saline with Tween-80 92 % of control | dose: 0.13 mg/kg/injection, schedule: Q01DX009 (ip), vehicle: Klucel (hydroxypropylcellulose) (HPC) 93 % of control | dose: 0.13 mg/kg/injection, schedule: Q04DX003 (ip), vehicle: saline with Tween-80 95 % of control | dose: 0.25 mg/kg/injection, schedule: Q04DX003 (ip), vehicle: saline with Tween-80 98 % of control | dose: 0.5 mg/kg/injection, schedule: Q04DX003 (ip), vehicle: saline with Tween-80 112 % of control | dose: 1.0 mg/kg/injection, schedule: Q01DX009 (ip), vehicle: Klucel (hydroxypropylcellulose) (HPC) 90 % of control | dose: 13.0 micrograms/kg/injection, schedule: Q01DX009 (ip), vehicle: Klucel (hydroxypropylcellulose) (HPC) 98 % of control | dose: 25.0 micrograms/kg/injection, schedule: Q01DX009 (ip), vehicle: Klucel (hydroxypropylcellulose) (HPC) 103 % of control | dose: 50.0 micrograms/kg/injection, schedule: Q01DX009 (ip), vehicle: Klucel (hydroxypropylcellulose) (HPC) 94 % of control | dose: 100.0 micrograms/kg/injection, schedule: Q01DX009 (ip), vehicle: Klucel (hydroxypropylcellulose) (HPC) 100 % of control | dose: 200.0 micrograms/kg/injection, schedule: Q01DX009 (ip), vehicle: Klucel (hydroxypropylcellulose) (HPC) 103 % of control

CCC(C)C1NC(=O)C2CCCN2C(=O)C(CC2CO2)OC(=O)CCNC(=O)C(C)N(C)C(=O)C(C(C)C)N(C)C1=O (stereo not drawn)
inactive: dose: 1.56 mg/kg/injection, schedule: Q01DX005 (ip), vehicle: water 100 % of control | dose: 3.12 mg/kg/injection, schedule: Q01DX005 (ip), vehicle: water 109 % of control

CN1CCC2(C)CC1Cc1ccc(O)cc12 (stereo not drawn)
inactive: dose: 3.12 mg/kg/injection, schedule: Q01DX005 (ip), vehicle: saline 96 % of control | dose: 6.25 mg/kg/injection, schedule: Q01DX005 (ip), vehicle: saline 104 % of control | dose: 12.5 mg/kg/injection, schedule: Q01DX005 (ip), vehicle: saline 105 % of control | dose: 25.0 mg/kg/injection, schedule: Q01DX005 (ip), vehicle: saline 96 % of control

CCOC(=O)Cn1nc(-c2ccccc2)c(-c2ccccc2)c(C#N)c1=O
inactive: dose: 25.0 mg/kg/injection, schedule: Q04DX002 (ip), vehicle: distilled water + Tween-80 95 % of control | dose: 50.0 mg/kg/injection, schedule: Q04DX002 (ip), vehicle: distilled water + Tween-80 107 % of control | dose: 100.0 mg/kg/injection, schedule: Q04DX002 (ip), vehicle: distilled water + Tween-80 98 % of control | dose: 200.0 mg/kg/injection, schedule: Q04DX002 (ip), vehicle: distilled water + Tween-80 92 % of control

O=c1[nH]c2nc(Cl)nc(Cl)c2[nH]1
inactive: [2] 98 % of control | [3] 94 % of control | [4] 93 % of control

c1cc(-c2[nH]c3cc(C4=NCCN4)ccc3c2-c2cc3ccc(C4=NCCN4)cc3[nH]2)ccc1C1=NCCN1
inactive: dose: 3.12 mg/kg/injection, schedule: Q01DX005 (ip), vehicle: Klucel (hydroxypropylcellulose) (HPC) 107 % of control | dose: 6.25 mg/kg/injection, schedule: Q01DX005 (ip), vehicle: Klucel (hydroxypropylcellulose) (HPC) 96 % of control | dose: 12.5 mg/kg/injection, schedule: Q01DX005 (ip), vehicle: Klucel (hydroxypropylcellulose) (HPC) 109 % of control

CCOC(=O)c1c2n(c3ccccc13)C1(C(=O)OCC)CC1(C(C)=O)C1CN21 (stereo not drawn)
inactive: dose: 25.0 mg/kg/injection, schedule: Q01DX005 (ip), vehicle: saline with Tween-80 106 % of control | [2] 101 % of control and 108 % of control | [3] 106 % of control and 120 % of control | [4] 117 % of control and 119 % of control

CN=C1N[N+]2=CCCCC2S1 (stereo not drawn)
inactive: dose: 12.5 mg/kg/injection, schedule: Q04DX003 (ip), vehicle: saline 102 % of control | dose: 15.0 mg/kg/injection, schedule: Q01DX009 (ip), vehicle: saline 100 % of control and 101 % of control | dose: 25.0 mg/kg/injection, schedule: Q04DX003 (ip), vehicle: saline 104 % of control | dose: 30.0 mg/kg/injection, schedule: Q01DX009 (ip), vehicle: saline 92 % of control and 97 % of control | dose: 50.0 mg/kg/injection, schedule: Q04DX003 (ip), vehicle: saline 97 % of control | dose: 60.0 mg/kg/injection, schedule: Q01DX009 (ip), vehicle: saline 114 % of control and 96 % of control | dose: 120.0 mg/kg/injection, schedule: Q01DX009 (ip), vehicle: saline 120 % of control and 96 % of control

O=C(/C(=C\c1ccc(F)cc1)S(=O)(=O)c1ccc(F)cc1)c1ccccc1
inactive: [2] 110 % of control | [3] 102 % of control | [4] 103 % of control

CCCC1C(=O)N2C(N(C)C)=Nc3ccc(C)cc3N2C1=O (stereo not drawn)
inactive: dose: 50.0 mg/kg/injection, schedule: Q01DX009 (ip), vehicle: suspension in saline 101 % of control | dose: 100.0 mg/kg/injection, schedule: Q01DX009 (ip), vehicle: suspension in saline 104 % of control | dose: 200.0 mg/kg/injection, schedule: Q01DX009 (ip), vehicle: suspension in saline 106 % of control | dose: 400.0 mg/kg/injection, schedule: Q01DX009 (ip), vehicle: suspension in saline 97 % of control

— PubChem BioAssay AID330 (DTP/NCI, 2004)
